# Values of other authors, collected in patent US20050255458A1, “Drug discovery assays based on the biology of chronic disease” (priority 2002, published 2005).
# Read-outs that look alike come from different tables or passages of the source.
# How the values were obtained:
# HSV-1 = details: cited from earlier work
# TF promoter = details: cited from earlier work
# tissue factor (TF) gene = details: cited from earlier work
# [1] = system: hair follicles (onset of anagen); details: topical 10 nmol twice weekly, female CD-1 mice; cited from earlier work
# AR gene = details: cited from earlier work
# Elk-1 = details: Peterziel 1999; cited from earlier work
# ERK [2] = details: cited from earlier work
# sebocytes = details: 10^−6 M, cited from earlier work
# [3] = system: AU565 breast carcinoma cells; details: cited from earlier work
# [4] = system: ML-1 human myeloblastic leukemic cells; details: cited from earlier work
# endogenous AR gene = details: 10^−8 M, cited from earlier work
# DC = details: inhaled; cited from earlier work
# NF-κB [5] = details: cited from earlier work
# GABP = details: Ojuka 2003; cited from earlier work
# [6] = system: hamsters on a high-cholesterol diet; details: 8 weeks, cited from earlier work
# TF [7] = details: cited from earlier work
# TF [8] = details: cited from earlier work; remark: listed apart in the source
# ACE = biological target: T1, ACE (Mesocricetus auratus, UniProt Q50JE5); details: cited from earlier work
# T1 construct: from tissue; host or cells: whole animal, in vivo (hamster)
# T1 sequence (Q50JE5 36-1314): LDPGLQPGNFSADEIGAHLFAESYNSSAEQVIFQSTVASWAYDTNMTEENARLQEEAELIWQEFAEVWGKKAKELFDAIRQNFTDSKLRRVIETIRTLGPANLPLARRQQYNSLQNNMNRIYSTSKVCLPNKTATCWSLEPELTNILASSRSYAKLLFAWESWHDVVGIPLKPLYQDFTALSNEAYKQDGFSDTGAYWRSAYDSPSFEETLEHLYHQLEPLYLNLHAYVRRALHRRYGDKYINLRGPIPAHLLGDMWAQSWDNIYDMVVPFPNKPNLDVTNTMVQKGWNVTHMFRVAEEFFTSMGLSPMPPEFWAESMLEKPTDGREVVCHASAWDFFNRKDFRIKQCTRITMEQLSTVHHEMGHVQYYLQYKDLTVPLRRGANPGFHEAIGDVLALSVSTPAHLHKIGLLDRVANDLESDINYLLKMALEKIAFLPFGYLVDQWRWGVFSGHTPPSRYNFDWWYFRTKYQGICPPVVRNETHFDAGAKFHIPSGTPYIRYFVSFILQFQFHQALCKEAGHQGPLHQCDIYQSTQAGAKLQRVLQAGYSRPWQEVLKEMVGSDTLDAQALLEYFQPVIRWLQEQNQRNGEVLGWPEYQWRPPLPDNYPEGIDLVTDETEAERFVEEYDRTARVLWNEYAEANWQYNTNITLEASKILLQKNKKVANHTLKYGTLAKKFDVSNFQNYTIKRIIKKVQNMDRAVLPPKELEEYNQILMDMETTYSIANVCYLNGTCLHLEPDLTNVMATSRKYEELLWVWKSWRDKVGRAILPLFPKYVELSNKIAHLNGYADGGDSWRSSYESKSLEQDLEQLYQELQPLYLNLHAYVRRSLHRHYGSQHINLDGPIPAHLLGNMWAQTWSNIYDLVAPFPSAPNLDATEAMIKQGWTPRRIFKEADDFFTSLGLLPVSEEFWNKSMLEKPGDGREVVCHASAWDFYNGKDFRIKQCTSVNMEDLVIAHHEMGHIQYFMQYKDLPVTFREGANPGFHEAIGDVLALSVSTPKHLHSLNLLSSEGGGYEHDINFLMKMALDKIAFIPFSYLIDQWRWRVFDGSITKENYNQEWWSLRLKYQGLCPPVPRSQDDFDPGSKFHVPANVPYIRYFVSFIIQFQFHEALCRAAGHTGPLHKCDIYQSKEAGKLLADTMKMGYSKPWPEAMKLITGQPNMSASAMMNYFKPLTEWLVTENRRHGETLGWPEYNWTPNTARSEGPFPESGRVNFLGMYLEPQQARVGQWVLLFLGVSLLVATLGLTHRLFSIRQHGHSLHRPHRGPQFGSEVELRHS
# [9] = system: abdominal subcutaneous adipocytes; details: obese vs non-obese (Hellstrom 2000); cited from earlier work
# ERK [10] = details: cited from earlier work; remark: listed apart in the source
# [11] = cited from earlier work
# NF-κB [12] = details: various cells and tissues; cited from earlier work
# [13] = drinking water, 4 months, vs untreated obese (fa/fa); cited from earlier work
# MDAY-D2 tumor = details: 500 μg daily s.c., cited from earlier work
structure (smiles),measurement,setting,value
"Nc1nc2c(ncn2COCCO)c(=O)[nH]1 [ACV, aciclovir]",copy number of latent HSV-1 genomes,"HSV-1; 7 days from first day post infection, day 44, relative to IgG",decreased the copy number of latent HSV-1 genomes
"CC1=C(/C=C/C(C)=C/C=C/C(C)=C/C(=O)O)C(C)(C)CCC1 [ATRA, all-trans retinoic acid]",LPS induced increase in LUC transcription,TF promoter; 30-minute ATRA before 5-hour LPS,no decrease
same,LUC activity,"TF promoter; ATRA 10^−5 mol/L, 30 minutes, vs untreated",no decrease in LUC activity
same,TF mRNA,"tissue factor (TF) gene; 10^−5 mol/L, 30 minutes",decrease in TF mRNA
same,"binding of c-Fos/c-Jun, c-Rel/p65 and Sp1 to their sites","tissue factor (TF) gene; 10^−5 mol/L, 30 minutes",no change in binding
same,rate of TF transcription (run-on),"tissue factor (TF) gene; LPS 10 μg/ml 1 hour, ATRA 10^−5 mol/L 30 minutes before LPS",decreased TF transcription
"C[C@]12CCC(=O)C[C@@H]1CC[C@@H]1[C@@H]2CC[C@]2(C)[C@@H](O)CC[C@@H]12 [DHT, Dihydrotestosterone]",delay in hair regrowth,[1],3-4 week
same,AR mRNA half life,AR gene; LNCaP,Increased mRNA half life
same,AR transcription in run-on assays,AR gene; LNCaP,Decreased transcription
same,Effect on [mRNAAR],AR gene; LNCaP,↓[mRNAAR]
same,AR mRNA half life,AR gene; MDA453,Decreased mRNA half life
same,AR transcription in run-on assays,AR gene; MDA453,No change in run-on
same,Effect on [mRNAAR],AR gene; MDA453,↓[mRNAAR]
same,Elk-1 transcription activity,Elk-1,increase in Elk-1 transcription activity
same,ERK phosphorylation,ERK [2]; LNCaP or PC-3 cells (Guo 2000),no increase in ERK phosphorylation
same,Effect on [ERK^phos],ERK [2]; LNCaP,↑[ERK^phos]
same,Effect on [ERK^phos],ERK [2]; primary genital skin fibroblasts,↑[ERK^phos]
same,Effect on [ERK^phos],ERK [2]; primary prostatic stormal cells,↑[ERK^phos]
same,decrease in DNA synthesis (^3H-thymidine uptake),sebocytes; vs untreated,40%
same,sebocyte differentiation (lipid accumulation),sebocytes; statistically insignificant,small increase
"CC(=O)OCC(CCn1cnc2cnc(N)nc21)COC(C)=O [FCV, famciclovir]",establishment of viral latency,HSV-1; 9-10 days treatment early in infection,effective in limiting the establishment of viral latency
COc1cccc(-c2cc(=O)c3ccccc3o2)c1N [PD98059],effect on HRGβ1-induced cell growth arrest,[3]; 0-10 μM PD98059,dose-dependently reversed
same,cell differentiation,"[3]; HRGβ1 alone, PD98059 as pretreatment",dose-dependently inhibited
same,ML-1 proliferation with TPA,[4]; 10 μM PD98059 with 0.3 ng/ml TPA,continued to proliferate
same,decrease in TPA-stimulated ERK2 activity,[4]; 1 h,2 fold
same,decrease in TPA-stimulated ERK2 activity,[4]; 3 h,10 fold
"C[C@]1(O)CC[C@H]2[C@@H]3CCC4=CC(=O)CCC4=C3C=C[C@@]21C [R1881, methyltrienolone]",Effect on [mRNAAR],AR gene; LNCaP,↓[mRNAAR]
same,Effect on [ERK^phos],ERK [2]; PMC42 human breast cancer cells,↑[ERK^phos]
same,transcription of endogenous AR gene,endogenous AR gene; 8 hours,85 % of control
same,transcription of endogenous AR gene,endogenous AR gene; 24 hours,73 % of control
CCC(=O)OCC(=O)[C@@]1(OC(=O)CC)[C@@H](C)C[C@H]2[C@@H]3CCC4=CC(=O)C=C[C@]4(C)[C@@]3(Cl)[C@@H](O)C[C@@]21C [beclomethasone dipropionate],number of DC in asthma,DC,decreased the excessive number of DCs in asthma
same,NF-κB activation,NF-κB [5],decreases NF-κB activation
Cn1c(=O)c2c(ncn2C)n(C)c1=O [caffeine],GABP binding to the N-box,GABP,increase of GABP binding
C[C@H](CS)C(=O)N1CCC[C@H]1C(=O)O [captopril],cell size of macrophage derived foam cells,[6],did not change the cell size
same,decrease of fatty streak area,[6],35%
same,heart rate,[6],348±6 beats/min
same,mean arterial pressure,[6],110±5 mm Hg
same,subendothelial number of macrophage derived foam cells in the aortic arch,[6],108±10 cells/mm^2
same,plasma total cholesterol,"[6]; pravastatin 34, captopril 100 mg/kg/day",did not change plasma lipids
same,level of TF antigen and mRNA in the cultured cells,TF [7],decreased the level of TF antigen and mRNA
same,nuclear translocation of c-Rel/p65 induced by endotoxin,TF [8]; 20 μg/mL,almost completely inhibited
same,TF activity,TF [8]; dose-dependent,decreased TF activity
same,decrease in HDL,"ACE; 100 mg/kg/day, 6 weeks, vs week 3 and 4",24%
same,number of subendothelial macrophage derived foam cells,"ACE; 100 mg/kg/day, after 6 weeks of treatment",52±9 cell/mm^2
same,area of extracellular lipid particles,ACE; after 6 weeks of treatment,"157±36 μm2×1,000"
same,area of fatty streak,ACE; after 6 weeks of treatment,"55±12 μm2×1,000"
same,average size of a foam cell,ACE; after 6 weeks of treatment,89±5 μm^2
O=C1CN(/N=C/c2ccc(-c3ccc([N+](=O)[O-])cc3)o2)C(O)=N1 [dantrolene],GABP binding to the N-box,GABP,prevented the effect
"CCCC(=O)Nc1ncnc2c1ncn2[C@@H]1O[C@@H]2COP(=O)(O)O[C@H]2[C@H]1OC(=O)CCC [dibutyryl cAMP, dibutyryl cyclic AMP]",decrease in maximum induced glycerol release,[9],50%
same,ERK activation,ERK [10]; adipocytes,activated ERK
"Nc1nc(O)c2ncn(COC(CO)CO)c2n1 [ganciclovir, Ganciclovir]",actuarial incidence of TxCAD,"[11]; 28 days prophylaxis, follow-up 4.7±1.3 years",43±8%
same,patients who developed TxCAD,"[11]; CMV seronegative recipients, 14 patients",28%
CC(C)NCC(O)c1ccc(O)c(O)c1 (stereo not drawn) [isoprenaline],decrease in maximum induced glycerol release,[9],50%
same,ERK activation,ERK [10]; CHO/K1 cells expressing the human β3AR,activated ERK
same,ERK activation,ERK [10]; adipocytes,activated ERK
CC[C@H](C)C(=O)O[C@H]1CCC=C2C=C[C@H](C)[C@H](CC[C@@H]3C[C@@H](O)CC(=O)O3)[C@H]21 [mevastatin],NF-κB activation,NF-κB [12],inhibited NF-κB activation
O=C(O)C[C@H](O)C[C@H](O)/C=C/c1c(C2CC2)nc2ccccc2c1-c1ccc(F)cc1 [pitavastatin],NF-κB activation,NF-κB [12],inhibited NF-κB activation
[Na+].[Na+].[Na+].[O]=[V]([O-])([O-])[O-] [sodium orthovanadate],decrease in body weight,[13],43%
same,tumor weights,"MDAY-D2 tumor; day 14, 11 mice with tumors",0.08 to 0.47 g
same,decrease in tumor growth,MDAY-D2 tumor,more than 85%
